In one assay the test system is Puccinia triticina. In words: Wheat brown rust (PUCCRT) disease control on wheat seedlings. Type of assay: in vivo. Details: key to PUCCRT 3DC, HV activity at 100 ppm (% control rating) / PUCCRT disease control, 3DC / PUCCRT 1DP disease control rating, HV activity / PUCCRT 3DC disease control rating, HV activity / PUCCRT 3DC, LV activity at 125.1 g/H (% Control rating) / PUCCRT 1DP, LV activity at 125.1 g/H (% Control rating) / PUCCRT 3DC disease control rating, LV activity at 125.1 g/H / PUCCRT 1DP disease control rating, LV activity at 125.1 g/H / PUCCRT 3DC disease control rating, HV activity at 100 ppm / PUCCRT 1DP disease control rating, HV activity at 100 ppm / HV activity at 100 ppm PUCCRT 3DC (disease control rating) / LV activity at 125.1 g/H PUCCRT 1DP (disease control rating) / LV activity at 125.1 g/H PUCCRT 3DC (disease control rating): A: > 80; B: ≤ 80; C: Not Tested; D: No Activity Observed in the Reported Assay. To be noted: for PUCCRT 1DP disease control rating, HV activity / PUCCRT 3DC disease control rating, HV activity: HV application at 100 ppm; for PUCCRT 1DP disease control rating, HV activity at 100 ppm / PUCCRT 3DC disease control rating, HV activity at 100 ppm: high volume application.

In another assay the test system is Zymoseptoria tritici. Put plainly: Leaf blotch of wheat (SEPTTR) disease control on wheat seedlings. Type of assay: in vivo. Further details: key to SEPTTR 1DP, HV activity at 100 ppm (% control rating) / SEPTTR 3DC, HV activity at 100 ppm (% control rating) / SEPTTR disease control, 1DP / SEPTTR disease control, 3DC / SEPTTR 1DP disease control rating, HV activity / SEPTTR 3DC disease control rating, HV activity / SEPTTR 3DC, LV activity at 125.1 g/H (% Control rating) / SEPTTR 1DP, LV activity at 125.1 g/H (% Control rating) / SEPTTR 1DP disease control rating, LV activity at 125.1 g/H / SEPTTR 3DC disease control rating, LV activity at 125.1 g/H / SEPTTR 3DC disease control rating, HV activity at 100 ppm / SEPTTR 1DP disease control rating, HV activity at 100 ppm / HV activity at 100 ppm SEPTTR 3DC (disease control rating) / HV activity at 100 ppm SEPTTR 1DP (disease control rating) / LV activity at 125.1 g/H SEPTTR 1DP (disease control rating) / LV activity at 125.1 g/H SEPTTR 3DC (disease control rating): A: > 80; B: ≤ 80; C: Not Tested; D: No Activity Observed in the Reported Assay. The conditions noted are these: for SEPTTR 1DP disease control rating, HV activity / SEPTTR 3DC disease control rating, HV activity: HV application at 100 ppm; for SEPTTR 1DP disease control rating, HV activity at 100 ppm / SEPTTR 3DC disease control rating, HV activity at 100 ppm: high volume application.

The mark [1] stands for this setting: HV application, 100 ppm, 1 Day Protectant.
The mark [2] stands for this setting: HV application, 100 ppm, 3 Day Curative.
The mark [3] stands for this setting: low volume application, 125.1 g/H, 1 Day Protectant.
Setting [4] is: low volume application, 125.1 g/H, 3 Day Curative.
Setting [5] is: low volume application, 125.1 g/H, 1 day protectant.
The mark [6] stands for this setting: low volume application, 125.1 g/H, 3 day curative.
Where [7] appears, read: 1 Day Protectant, wheat brown rust.
[8] abbreviates: 3 Day Curative, wheat brown rust.
Where [9] appears, read: 1 Day Protectant, wheat leaf blotch.
[10] abbreviates: 3 Day Curative, wheat leaf blotch.

These results are taken from patent US20180000085A1, “USE OF PICOLINAMIDE COMPOUNDS WITH FUNGICIDAL ACTIVITY” (DOW AGROSCIENCES LLC, priority 2014, published 2018).

For the molecule `CCC(CC)[C@@H](Oc1cccc(F)c1)[C@H](C)OC(=O)[C@@H](NC(=O)c1nccc(OC)c1OCOC(C)=O)C(C)C` [Cmpd 645], in the assay with Puccinia triticina (setting [1]), the “PUCCRT 1DP, HV activity at 100 ppm (% control rating)” value is “A (> 80)”. Moreover, in the assay with Puccinia triticina (setting [2]), the “PUCCRT 3DC, HV activity at 100 ppm (% control rating)” value is “A (> 80)”. Also, the “PUCCRT 1DP, LV activity at 125.1 g/H (% Control rating)” value in the assay on Puccinia triticina (setting [3]) is “A (> 80)”. Also, the “PUCCRT 3DC, LV activity at 125.1 g/H (% Control rating)” value in the assay with Puccinia triticina (setting [4]) is recorded as “A (> 80)”. Also, the “SEPTTR 1DP, HV activity at 100 ppm (% control rating)” value in the assay on Zymoseptoria tritici (setting [1]) is on record as “A (> 80)”. Besides, the “SEPTTR 3DC, HV activity at 100 ppm (% control rating)” value in the assay with Zymoseptoria tritici (setting [2]) was “A (> 80)”. Besides, the “SEPTTR 1DP, LV activity at 125.1 g/H (% Control rating)” value in the assay with Zymoseptoria tritici (setting [3]) is given as “D”. For the same molecule, the “SEPTTR 3DC, LV activity at 125.1 g/H (% Control rating)” value in the assay on Zymoseptoria tritici (setting [4]) is “A (> 80)”.
With `COc1ccnc(C(=O)NC(C)C(=O)OC(C)C(Oc2ccccc2)c2ccccc2)c1OC(=O)C(C)C` (centres unmarked) [Cmpd 871], the “PUCCRT 1DP disease control rating, LV activity at 125.1 g/H” value in the assay on Puccinia triticina (setting [5]) is “D”. Besides, the “PUCCRT 3DC disease control rating, LV activity at 125.1 g/H” value in the assay on Puccinia triticina (setting [6]) is recorded as “D”. Further, the “SEPTTR 1DP disease control rating, LV activity at 125.1 g/H” value in the assay with Zymoseptoria tritici (setting [5]) is on record as “A (> 80)”. In the assay with Zymoseptoria tritici (setting [6]), the “SEPTTR 3DC disease control rating, LV activity at 125.1 g/H” value is on record as “B (≤ 80)”.
Regarding `CCC(CC)[C@@H](Oc1ccccc1)[C@H](C)OC(=O)[C@H](C)NC(=O)c1nccc(OC)c1O` [Cmpd 306], in the assay on Puccinia triticina (setting [7]), the “PUCCRT 1DP disease control rating, HV activity” value was “A (> 80)”. The “PUCCRT 3DC disease control rating, HV activity” value with Puccinia triticina (setting [8]) was “A (> 80)”. In addition, the “SEPTTR 1DP disease control rating, HV activity” value with Zymoseptoria tritici (setting [9]) is reported as “A (> 80)”. Besides, the “SEPTTR 3DC disease control rating, HV activity” value in the assay with Zymoseptoria tritici (setting [10]) is “A (> 80)”.
Take `COc1cccc(O[C@@H]([C@H](C)OC(=O)[C@H](C)NC(=O)c2nccc(OC)c2O)C(C)(C)C)c1` [Cmpd 1015]: the “PUCCRT 1DP disease control rating, HV activity at 100 ppm” value with Puccinia triticina (100 ppm, 1 day protectant) is listed as “A (> 80)”. For the same molecule, the “PUCCRT 3DC disease control rating, HV activity at 100 ppm” value with Puccinia triticina (100 ppm, 3 day curative) is recorded as “A (> 80)”. Further, the “SEPTTR 1DP disease control rating, HV activity at 100 ppm” value with Zymoseptoria tritici (100 ppm, 1 day protectant) was “B (≤ 80)”. Further, the “SEPTTR 3DC disease control rating, HV activity at 100 ppm” value with Zymoseptoria tritici (100 ppm, 3 day curative) is “B (≤ 80)”.
With `COc1ccnc(C(=O)N[C@@H](C)C(=O)O[C@@H](C)[C@H](Oc2cccc(F)c2)C2CCCC2)c1O` [Cmpd 839], the “PUCCRT 1DP disease control rating, HV activity at 100 ppm” value in the assay with Puccinia triticina (100 ppm, 1 day protectant) is “A (> 80)”. In addition, the “PUCCRT 3DC disease control rating, HV activity at 100 ppm” value with Puccinia triticina (100 ppm, 3 day curative) is on record as “A (> 80)”. The “SEPTTR 1DP disease control rating, HV activity at 100 ppm” value in the assay on Zymoseptoria tritici (100 ppm, 1 day protectant) is “B (≤ 80)”. Further, the “SEPTTR 3DC disease control rating, HV activity at 100 ppm” value in the assay with Zymoseptoria tritici (100 ppm, 3 day curative) was “B (≤ 80)”.
Turning to `COc1ccnc(C(=O)N[C@@H](C)C(=O)O[C@@H](C)COCC(C)C)c1O` [Cmpd 339], the “PUCCRT 1DP disease control rating, HV activity” value in the assay on Puccinia triticina (setting [7]) is given as “B (≤ 80)”. For the same molecule, the “PUCCRT 3DC disease control rating, HV activity” value in the assay with Puccinia triticina (setting [8]) is “A (> 80)”. In addition, the “SEPTTR 1DP disease control rating, HV activity” value in the assay with Zymoseptoria tritici (setting [9]) is reported as “B (≤ 80)”. Besides, the “SEPTTR 3DC disease control rating, HV activity” value with Zymoseptoria tritici (setting [10]) is “D”.
In the case of `C=CC[C@@H](Oc1ccc(F)cc1F)[C@H](C)OC(=O)[C@H](C)NC(=O)c1nccc(OC)c1OC(C)=O` [Cmpd 1081], the “LV activity at 125.1 g/H PUCCRT 1DP (disease control rating)” value with Puccinia triticina (low volume application, 125.1 g/H, 1 Day Protectant, wheat brown rust) was “A (> 80)”. The “LV activity at 125.1 g/H PUCCRT 3DC (disease control rating)” value in the assay on Puccinia triticina (low volume application, 125.1 g/H, 3 Day Curative, wheat brown rust) is “B (≤ 80)”. In the assay with Zymoseptoria tritici (low volume application, 125.1 g/H, 1 Day Protectant, wheat leaf blotch), the “LV activity at 125.1 g/H SEPTTR 1DP (disease control rating)” value is listed as “D”. Besides, in the assay with Zymoseptoria tritici (low volume application, 125.1 g/H, 3 Day Curative, wheat leaf blotch), the “LV activity at 125.1 g/H SEPTTR 3DC (disease control rating)” value was “D”.
Take `COc1ccnc(C(=O)NC(C)C(=O)OC(C)C(Oc2cccc(Cl)c2)C(C)C)c1O` (centres unmarked) [Cmpd 432]: the “PUCCRT 1DP disease control rating, HV activity” value in the assay on Puccinia triticina (setting [7]) was “A (> 80)”. Further, the “PUCCRT 3DC disease control rating, HV activity” value in the assay with Puccinia triticina (setting [8]) is on record as “B (≤ 80)”. The “SEPTTR 1DP disease control rating, HV activity” value with Zymoseptoria tritici (setting [9]) was “A (> 80)”. Further, the “SEPTTR 3DC disease control rating, HV activity” value with Zymoseptoria tritici (setting [10]) is reported as “D”.
Regarding `CC[C@H](CCC(C)C)[C@@H](OCC1CC1)[C@H](C)OC(=O)[C@H](C)NC(=O)c1nccc(OC)c1OCOC(C)=O` [Cmpd 506], in the assay with Puccinia triticina (setting [3]), the “PUCCRT 1DP, LV activity at 125.1 g/H (% Control rating)” value is reported as “A (> 80)”. In addition, the “PUCCRT 3DC, LV activity at 125.1 g/H (% Control rating)” value in the assay with Puccinia triticina (setting [4]) is “B (≤ 80)”. Further, the “SEPTTR 1DP, LV activity at 125.1 g/H (% Control rating)” value with Zymoseptoria tritici (setting [3]) was “B (≤ 80)”. Besides, the “SEPTTR 3DC, LV activity at 125.1 g/H (% Control rating)” value with Zymoseptoria tritici (setting [4]) was “B (≤ 80)”.
With `CCC(CC)[C@@H](Oc1cc(F)cc(Cl)c1)[C@H](C)OC(=O)[C@H](C)NC(=O)c1nccc(OC)c1OC(C)=O` [Cmpd 603], the “PUCCRT 1DP, LV activity at 125.1 g/H (% Control rating)” value in the assay with Puccinia triticina (setting [3]) is “A (> 80)”. In addition, in the assay with Puccinia triticina (setting [4]), the “PUCCRT 3DC, LV activity at 125.1 g/H (% Control rating)” value was “A (> 80)”. Further, the “SEPTTR 1DP, LV activity at 125.1 g/H (% Control rating)” value in the assay with Zymoseptoria tritici (setting [3]) was “A (> 80)”. Moreover, in the assay with Zymoseptoria tritici (setting [4]), the “SEPTTR 3DC, LV activity at 125.1 g/H (% Control rating)” value is “A (> 80)”.
